Each structure is given as a SMILES string.

Data set [1] is described as follows: Absorption test, pulmonary administration (0.2 mg/kg) of suspension. It is filed as in vivo. The conditions noted are these: cynomolgus monkey, plasma, suspension of Preparation Example 2, male cynomolgus monkeys, relative to intravenous 0.4 mg/kg, read-out: bioavailability (BA). The procedure:
2. Pulmonary Administration (0.2 mg/kg)
Each of three male cynomolgus monkeys (mean body weight: 3.5 to 4.5 kg, age: 5 to 6) was anesthetized with ketamine and, after inserting a bronchial catheter and inserting an administration tube inside the catheter, the suspension produced in Preparation Example 2 was administered into the lung in a dose of 0.2 mg/kg. Before and after administration (0.25, 0.5, 1, 2, 3, 4, 8 and 12 hours), blood was collected from the cephalic vein and the obtained blood was centrifugally separated to obtain blood plasma, and then the concentration of the compound 1 was measured.
(§1) 5. Intravenous Administration (0.4 mg/kg)
(§2) The preparation produced in Comparative Example 3 was intravenously administered to each of three male cynomolgus monkeys (mean body weight: 4 kg, age: 5 to 6) in the concentration of 0.4 mg/kg. After administration, blood was collected from the cubital cutaneous vein and the obtained blood was centrifugally separated to obtain blood plasma, and then the concentration of the compound 1 was measured.
(§3) Also, a bioavailability (BA (%)) was calculated from the obtained results.
(§4) BA denotes a numerical value represented by “(AUC of pulmonary administration/dose of pulmonary administration)/(AUC of intravenous administration/dose of intravenous administration)×100” (%), and AUC denotes an area under the blood concentration time curve (ng·hr/ml).

Another data set in a line: Solubility in water. The data set is classed as physicochemical.
Data set [2] is described as follows: Absorption test, oral administration (3 mg/kg) of microemulsion preparation. It is filed as in vivo. The note with it: rhesus monkey, plasma, preparation of Comparative Example 1, male rhesus monkeys, relative to intravenous 0.4 mg/kg, read-out: bioavailability (BA). As for the experimental part:
3. Oral Administration (3 mg/kg)
An oral administration tube was inserted through the mouth of each of three male rhesus monkeys (mean body weight: 3.5 kg, age: 3) and 5.25 mL (3 mg/kg) of the preparation produced in Comparative Example 1 was orally administrated. After administration (0.5, 1, 2, 4, and 6 hours), blood was collected from the cubital cutaneous vein and the obtained blood was centrifugally separated to obtain blood plasma, and then the concentration of the compound 1 was measured.
as §1, §2, §3, §4

The nature of data set [3]: Absorption test, pulmonary administration (2 mg/kg) of suspension. It is filed as in vivo, rhesus monkeys. As for the experimental part:
1. Pulmonary Administration (2 mg/kg)
Each of three male rhesus monkeys (mean body weight: 3.35 kg, age: 5) was anesthetized with ketamine and, after inserting a bronchial catheter and inserting an administration tube inside the catheter, the suspension produced in Preparation Example 1 was administered into the lung in a dose of 2 mg/kg. Before and after administration (0.25, 0.5, 1, 2, 3, 4, 6, and 8 hours), blood was collected from the cubital cutaneous vein and the obtained blood was centrifugally separated to obtain blood plasma, and then the concentration of the compound 1 was measured.
as §1, §2, §3, §4

Data set [4] is described as follows: Particle size measurement by laser diffraction particle size distribution analyzer. The data set is classed as physicochemical. The note with it: volume mean diameter. The procedure: The “mean particle size” means a particle size which represents a group of particles, when the group of particles is composed of a lot of particles each having a non-uniform size. The mean particle size includes, but is not limited to, weighting averages such as a number mean diameter, a length mean diameter, an area mean diameter, a volume mean diameter and the like, and means the volume mean diameter in the present invention.
For the measurement of the particle size, a hexane solution (20 mM) of Aerosol OT was used as a disperse medium. Particles to be measured were placed in a test tube and 1 mL of the disperse medium was added to obtain a suspension. The suspension was subjected to an ultrasonic treatment for one minute and the particle size was measured using a laser diffraction particle size distribution analyzer (SALD-2100: Shimadzu Corporation). In the case of measuring the particle size of particles in the suspension, an aqueous 0.1% Polysorbate 80 solution was used as the disperse medium in place of Aerosol OT.

With `CC(C)(C)OC(=O)N1CSC[C@H]1C(=O)N[C@@H](CSCC1CCCCC1)C(=O)NC1CCN(Cc2ccccc2)CC1` [compound 1, Tert-butyl (4R)-4-{[((1R)-2-[(1-benzylpiperidin-4-yl)amino]-1-{[(cyclohexylmethyl)thio]methyl}-2-oxoethyl)amino]carbonyl}-1,3-thiazolidine-3-carboxylate], the bioavailability was 103% in data set [1]; 0.2% in data set [2]; 93.4% in data set [3] (rhesus monkey, plasma, pulmonary administration 2 mg/kg, suspension of Preparation Example 1, male rhesus monkeys, relative to intravenous 0.4 mg/kg, read-out: bioavailability (BA)). The solubility in water entry in the data set “Solubility in water” is given as “poorly soluble in water”. Further, the “improvement in BA” value in data set [3] (pulmonary administration versus oral administration) is given as at least 450 times. Also, in data set [4], the “Mean particle size (μm)” value was “about 120 μm”.

The record behind these values is patent US20090022915A1, “PARTICLE AND PREPARATION CONTAINING THE PARTICLE” (ONO PHARMACEUTICAL CO., LTD.,, priority 2005, published 2009).
